Where a name gives a salt, the structure may show the parent alone.
Experiments:
Format in all cases: functional
Details in all cases: Homo sapiens, read-out: ED50 (the source's name)
A549 = test: Cytotoxicity against A-549 cell line in the purdue cell culture screen was determined
MIA PaCa-2 = test: Cytotoxicity against PACA-2 cell line in the purdue cell culture screen was determined
PC-3 = test: Cytotoxicity against PC-3 cell line in the purdue cell culture screen was determined
MCF7R = test: Cytotoxicity against MCF-7R cell line in the purdue cell culture screen was determined
NCI/ADR-RES = test: Cytotoxicity against MCF-7ADR cell line in the purdue cell culture screen was determined
A498 = test: Cytotoxicity against A-498 cell line in the purdue cell culture screen was determined
HT-29 = test: Cytotoxicity against HT-29 cell line in the purdue cell culture screen was determined
MCF7 = test: Cytotoxicity against MCF-7 cell line in the purdue cell culture screen was determined

Structure (SMILES) | EC50 (A549) [µM] | EC50 (MIA PaCa-2) [µM] | EC50 (PC-3) [µM] | EC50 (MCF7R) [µM] | EC50 (NCI/ADR-RES) [µM] | EC50 (A498) [µM] | EC50 (HT-29) [µM] | EC50 (MCF7) [µM]
CC(C)CCC1([C@@H](C)[C@@]2(O)[C@H](O)C[C@@]3(C)C4CC[C@@]5(C)C[C@@H](O)CC[C@]5(C)[C@@]4(C)CC[C@]23C)OCCO1 (stereo not given in full) | 13 | 6.4 | 39 | 7.1 | 28 | 1.7 | 3 | 2.4
CC(C)CCC(=O)[C@@H](C)[C@@]1(O)C(=O)C[C@@]2(C)C3CC[C@@]4(C)C[C@@H](O)CC[C@]4(C)[C@@]3(C)CC[C@@]21C (stereo not given in full) | 105 | 30 | 5.6 | 55 | 100 | 19.3 | 1.6 | 130
CC(C)CCC1([C@@H](C)[C@@]2(O)C(=O)C[C@@]3(C)C4CC[C@@]5(C)C[C@@H](O)CC[C@]5(C)[C@@]4(C)CC[C@@]32C)OCCO1 (stereo not given in full) | 17 | 23 | 43 | 6.5 | 13 | 2.4 | 2.1 | 5.6
CO/N=C1\C[C@]2(C)CCC3C4=C[C@@H]5OC6(CC(C)(C)CO6)[C@@H](C)[C@@H]5[C@@]4(C)[C@H](O)C[C@]3(C)[C@@]2(C)C[C@H]1N (stereo not given in full) | 5.9 | 14 | 14 | – | 76 | 3.1 | 7.8 | 14
CC(=O)O[C@H]1CC[C@@]2(C)[C@@](C)(CCC3[C@]2(C)CC[C@]2(C)[C@@](O)([C@H](C)C4(CCC(C)C)OCCO4)[C@H](O)C[C@@]32C)C1 (stereo not given in full) | 30 | 23 | 17 | 31 | 42 | 16 | 29 | 23
CC(C)CCC1([C@@H](C)[C@@]2(O)[C@@H](O)C[C@@]3(C)C4CC[C@@]5(C)C[C@@H](O)CC[C@]5(C)[C@@]4(C)CC[C@]23C)OCCO1 (stereo not given in full) | 0.34 | 1.2 | 0.4 | 1.6 | – | 1.3 | 0.58 | –
CC(C)CCC1([C@@H](C)[C@@]2(O)[C@@H](O)C[C@@]3(C)C4CC[C@@]5(C)Cc6nc7c(nc6C[C@]5(C)[C@@]4(C)CC[C@]23C)C[C@]2(C)CCC3C4=C[C@@H]5OC6(CC(C)(C)CO6)[C@@H](C)[C@@H]5[C@@]4(C)[C@H](O)C[C@]3(C)[C@@]2(C)C7)OCCO1 (stereo not given in full) | 0.1 | > 2.2 | 0.3 | 1 | – | 3.1 | > 2.6 | –
CC(C)CCC1([C@@H](C)[C@@]2(O)[C@@H](O)C[C@@]3(C)C4CC[C@]5(C)Cc6nc7c(nc6C[C@]5(C)[C@]4(C)CC[C@]23C)C[C@@]2(C)CCC3[C@@H]4C[C@@H]5OC6(O[C@](C)(CO)C[C@H]6O)[C@@H](C)[C@]5(O)[C@@]4(C)[C@H](O)C[C@]3(C)[C@@]2(C)C7)OCCO1 (stereo not given in full) | 2.9 | 2.4 | 1.1 | 0.62 | – | 1.1 | 0.22 | –
CC(=O)O[C@H]1CC[C@@]2(C)C(=CCC3[C@]4(C)CC(=O)[C@](O)([C@H](C)C5(CCC(C)C)OCCO5)[C@@]4(C)CC[C@@]32C)C1 (stereo not given in full) | 15 | 2.2 | 3.7 | 11 | 26 | 2.8 | 0.5 | 28
CC(C)CCC(=O)[C@@H](C)[C@@]1(O)[C@H](O)C[C@@]2(C)C3CC[C@@]4(C)C[C@@H](O)CC[C@]4(C)[C@@]3(C)CC[C@]12C (stereo not given in full) | 17 | 23 | 43 | 6.5 | 13 | 2.4 | 2.1 | 5.6
CC(=O)O[C@H]1CC[C@@]2(C)[C@@](C)(CCC3[C@]2(C)CC[C@@]2(C)[C@@]3(C)CC(=O)[C@]2(O)[C@H](C)C2(CCC(C)C)OCCO2)C1 (stereo not given in full) | 31 | 88 | 580 | 89 | 70 | 15 | 7.5 | 39
CC(=O)O[C@H]1CC[C@@]2(C)C(=CCC3[C@]4(C)C[C@H](O)[C@](O)([C@H](C)C5(CCC(C)C)OCCO5)[C@@]4(C)CC[C@@]32C)C1 (stereo not given in full) | 15 | 11 | 10 | 33 | > 64 | 2.8 | 4.8 | > 60
C[C@@H]1[C@]2(O[C@H]3C=C4[C@@H]5CC[C@H]6Cc7nc8c(nc7C[C@]6(C)[C@H]5C[C@@H](O)[C@]4(C)[C@]31O)C[C@@H]1CC[C@H]3C4=CC[C@@H]5[C@H](C)[C@@]6(OC[C@]45C(=O)C[C@@H]3[C@@]1(C)C8)OC(C)(C)C[C@H]6O)O[C@](C)(CO)C[C@H]2O [CEPHALOSTATIN 1] | – | 4 | 1.4 | – | 4.1 | – | – | –
COc1cccc2c1C(=O)c1c(O)c3c(c(O)c1C2=O)C[C@@](O)(C(=O)CO)C[C@@H]3O[C@H]1C[C@H](N)[C@H](O)[C@H](C)O1 [DOXORUBICIN HYDROCHLORIDE] | 6.2 | 6.3 | 5.7 | 0.6 | 1.5 | 3.5 | 3.7 | 3.4

— ChEMBL document CHEMBL1131928, “On the relationship of OSW-1 to the cephalostatins” (1999)
